Patent US4336389A, “2-Substituted-4-aryl-5-thiazolecarboxylic acids and their derivatives as safening agents” (Monsanto Company, priority 1978, dated 1982)
Where a name gives a salt, the structure may show the parent alone.

How the values were obtained:
Type in all cases: in vivo
rice [1] = test: Inhibition of rice, safening agent and butachlor applied to soil surface, flooded pots (Example 18, Table IV); details: ~21 days, mean of two replicates
Experimental: (§1) 5.08 cm. of a good grade of top soil is placed in a 7.62 cm. deep plastic pot. A predetermined number of barnyard grass seeds are applied to the soil surface. A measured quantity of the safening agent and butachlor dispersed or dissolved in a suitable carrier is applied to the soil surface. Pre-soaked rice is seeded into the pots that were previously flooded with water. The water level is lowered below the soil surface for one week. The pots are flooded just above the soil surface for the duration of the test. The plants are observed at the end of approximately 21 days and the results in terms of percent inhibition recorded. For each test, pots are prepared containing soil treated only with butachlor. For each test, pots are prepared containing soil treated only with the safening agent. Pots are also prepared with untreated soil.

Barnyard Grass [2] = test: Inhibition of barnyard grass, safening agent and butachlor applied to soil surface, flooded pots (Example 18, Table IV); details: ~21 days, mean of two replicates
Experimental: as §1

rice [3] = test: Safening effect against butachlor injury to rice, safening agent and herbicide incorporated in soil (Example 15, Table I); design: key: herbicide-alone + safener-alone effect (max 100) minus combined effect; details: safening agent 8.96 kg/h, ~21 days
Experimental: (§2) A good grade of top soil is placed in a container and compacted to a depth of approximately 1.27 cm. from the top of said container. A predetermined number of rice seeds to be tested are placed on top of the soil. A quantity of soil sufficient to substantially fill the container is measured and placed in a second container. A measured quantity of the safening agent dispersed or dissolved in a suitable carrier is applied to the soil in the second container. A measured quantity of butachlor dispersed or dissolved in a suitable carrier is then sprayed on the soil already treated with the safening agent. The soil containing the safening agent and herbicide is thoroughly mixed. This mixing is sometimes referred to as incorporation of the herbicide and safening agent into the soil. The mixing or incorporation provides a substantially uniform distribution of the safening agent and herbicide throughout the soil. The seeds are covered with the soil containing the safening agent and herbicide and the pans are leveled. The pans are then placed on a sand bench in the greenhouse and watered from below as needed. The plants are observed at the end of approximately 21 days and the results in terms of percent inhibition of each seed lot are recorded. For each test series a pan of plants is also prepared containing no herbicide and no safening agent as a control. Additionally, for each test, a pan of plants is prepared with soil covering the seed containing no herbicide and only the measured amount of safening agent being incorporated into the soil covering the seeds to ascertain any herbicidal effect of the safening agent alone. For each series of tests the herbicidal effect of the herbicide is observed from pans of plants treated with the same quantity of herbicide alone. The "safening effect" is determined by adding the hericidal effect of the herbicide when applied alone to the herbicidal effect of the safening agent when applied alone (in no instance, however, will this sum be greater than 100) and substracting from that the herbicidal effect obtained when the herbicide and safening agent are incorporated into the soil as discussed above.
Table I summarizes the results obtained when the compounds of the invention were tested in accordance with the procedure of Example 15.

rice [4] = test: Safening effect against butachlor injury to pre-soaked rice, soil surface application, flooded pots (Example 16, Table II); design: key: herbicide injury alone + safener injury alone (max 100) minus combined injury; details: safening agent 0.56 kg/h, ~21 days, mean of two replicates
Experimental: as §2
A good grade of top soil is placed in a plastic pot. A measured quantity of the safening agent dispersed or dissolved in a suitable carrier is sprayed on the soil surface. A measured quantity of butachlor herbicide dissolved in a solvent is sprayed on the soil surface. Presoaked rice is seeded into the pots that were previously flooded with water and the water level lowered below the soil surface for one week. The pots are flooded at least up to the soil surface for the duration of the test. The plants are observed at the end of approximately 21 days and the results in terms of the percent inhibition of rice is recorded. As in Example 15, for each test pots are prepared containing soil treated only with butachlor. For each test, pots are also prepared containing soil treated only with the safening agent. Pots are also prepared in which the soil is not treated with either the herbicide or the safening agent. The safening effect is determined in accordance with Example 15.
Table II summarizes the results obtained when the compounds of the invention were tested in accordance with the procedure of Example 16.

rice [5] = test: Inhibition of rice by butachlor and safening agent sprayed on soil surface, flooded pots (Example 17, Table III); details: ~21 days, mean of two replicates
Experimental: as §1, with “agent” for “agent and butachlor”, “is sprayed on the soil surface. A measured quantity of butachlor herbicide dissolved in a solvent is sprayed on” for “is applied to”, “one week to allow barnyard grass to emerge.” for “one week.”, “prepared containing” for “prepared with”

Barnyard Grass [6] = test: Inhibition of barnyard grass by butachlor and safening agent sprayed on soil surface, flooded pots (Example 17, Table III); details: ~21 days, mean of two replicates
Experimental: as §1, with “agent” for “agent and butachlor”, “is sprayed on the soil surface. A measured quantity of butachlor herbicide dissolved in a solvent is sprayed on” for “is applied to”, “one week to allow barnyard grass to emerge.” for “one week.”, “prepared containing” for “prepared with”

[7] = safening agent 1.12 kg/h + butachlor 0.07 kg/h
[8] = safening agent 1.12 kg/h + butachlor 0.28 kg/h
[9] = safening agent 1.12 kg/h + butachlor 1.12 kg/h
[10] = safening agent 0.07 kg/h + butachlor 0.07 kg/h
[11] = safening agent 0.07 kg/h + butachlor 0.28 kg/h
[12] = safening agent 0.07 kg/h + butachlor 1.12 kg/h
[13] = safening agent 0.28 kg/h + butachlor 0.07 kg/h
[14] = safening agent 0.28 kg/h + butachlor 0.28 kg/h
[15] = safening agent 0.28 kg/h + butachlor 1.12 kg/h

Compound: CCOC(=O)c1sc(Oc2ccc(Cl)cc2Cl)nc1-c1ccccc1 [Ethyl 2-(2',4'-dichlorophenoxy)-4-phenyl-5-thiazolecarboxylate]
- % Inhibition, Rice (rice [1]; [7]): 15%
- % Inhibition, Rice (rice [1]; [8]): 88%
- % Inhibition, Rice (rice [1]; [9]): 99%
- % Inhibition, Rice (rice [1]; safening agent alone 1.12 kg/h): 0%
- % Inhibition, Barnyard Grass (Barnyard Grass [2]; [7]): 83%
- % Inhibition, Barnyard Grass (Barnyard Grass [2]; [8]): 98%
- % Inhibition, Barnyard Grass (Barnyard Grass [2]; [9]): 100%
- % Inhibition, Barnyard Grass (Barnyard Grass [2]; safening agent alone 1.12 kg/h): 0%

Compound: CCOC(=O)c1sc(Cl)nc1-c1cccc(C(F)(F)F)c1 [Example 2, Ethyl 2-Chloro-4-m-Trifluoromethylphenyl-5-thiazolecarboxylate]
- Safening Effect (rice [3]; butachlor 4.48 kg/h): 50
- Safening Effect (rice [4]; butachlor 0.07 kg/h): 68
- Safening Effect (rice [4]; butachlor 0.28 kg/h): 26
- Safening Effect (rice [4]; butachlor 1.12 kg/h): * (Safening effect between 0 and 20)

Compound: CCOC(=O)c1sc(Cl)nc1-c1ccc(F)cc1 [Example 3, Ethyl 2-Chloro-4-(p-Fluorophenyl)-5-Thiazolecarboxylate]
- Inhibition, Rice (rice [5]; [10]): 0%
- Inhibition, Rice (rice [5]; [11]): 5%
- Inhibition, Rice (rice [5]; [12]): 70%
- Inhibition, Rice (rice [5]; [13]): 0%
- Inhibition, Rice (rice [5]; [14]): 5%
- Inhibition, Rice (rice [5]; [15]): 58%
- Inhibition, Rice (rice [5]; [7]): 0%
- Inhibition, Rice (rice [5]; [8]): 0%
- Inhibition, Rice (rice [5]; [9]): 43%
- Inhibition, Rice (rice [5]; safening agent alone 0.07 kg/h): 0%
- Inhibition, Rice (rice [5]; safening agent alone 0.28 kg/h): 0%
- Inhibition, Rice (rice [5]; safening agent alone 1.12 kg/h): 0%
- Inhibition, Barnyard Grass (Barnyard Grass [6]; [10]): 97%
- Inhibition, Barnyard Grass (Barnyard Grass [6]; [11]): 99%
- Inhibition, Barnyard Grass (Barnyard Grass [6]; [12]): 100%
- Inhibition, Barnyard Grass (Barnyard Grass [6]; [13]): 92%
- Inhibition, Barnyard Grass (Barnyard Grass [6]; [14]): 100%
- Inhibition, Barnyard Grass (Barnyard Grass [6]; [15]): 100%
- Inhibition, Barnyard Grass (Barnyard Grass [6]; [7]): 92%
- Inhibition, Barnyard Grass (Barnyard Grass [6]; [8]): 100%
- Inhibition, Barnyard Grass (Barnyard Grass [6]; [9]): 100%
- Inhibition, Barnyard Grass (Barnyard Grass [6]; safening agent alone 0.07 kg/h): 0%
- Inhibition, Barnyard Grass (Barnyard Grass [6]; safening agent alone 0.28 kg/h): 0%
- Inhibition, Barnyard Grass (Barnyard Grass [6]; safening agent alone 1.12 kg/h): 0%
- Safening Effect (rice [3]; butachlor 6.72 kg/h): 65
- Safening Effect (rice [4]; butachlor 0.07 kg/h): 30
- Safening Effect (rice [4]; butachlor 0.28 kg/h): 73
- Safening Effect (rice [4]; butachlor 1.12 kg/h): 62

Compound: CCOC(=O)c1sc(Cl)nc1-c1ccccc1Cl [Example 5, Ethyl 2-Chloro-4-(o-Chlorophenyl)-5-Thiazolecarboxylate]
- Safening Effect (rice [3]; butachlor 6.72 kg/h): 65

Compound: CCOC(=O)c1sc(Cl)nc1-c1cccc(C)c1 [Example 6, Ethyl 2-Chloro-4-(m-Tolyl)-5-Thiazolecarboxylate]
- Safening Effect (rice [3]; butachlor 6.72 kg/h): 65

Compound: CCOC(=O)c1sc(Cl)nc1-c1ccc([N+](=O)[O-])cc1 [Example 7, Ethyl 2-Chloro-4-(p-Nitrophenyl)-5Thiazolecarboxylate]
- Safening Effect (rice [3]; butachlor 4.48 kg/h): 25
- Safening Effect (rice [4]; butachlor 0.07 kg/h): * (Safening effect between 0 and 20)
- Safening Effect (rice [4]; butachlor 0.28 kg/h): 38
- Safening Effect (rice [4]; butachlor 1.12 kg/h): * (Safening effect between 0 and 20)

Compound: CCOC(=O)c1sc(OCC)nc1-c1ccccc1 [Example 8, Ethyl 2-Ethoxy-4-Phenyl-5-Thiazolecarboxylate]
- % Inhibition, Rice (rice [1]; [7]): 30%
- % Inhibition, Rice (rice [1]; [8]): 88%
- % Inhibition, Rice (rice [1]; [9]): 95%
- % Inhibition, Rice (rice [1]; safening agent alone 1.12 kg/h): 0%
- Safening Effect (rice [3]; butachlor 4.48 kg/h): 75
- % Inhibition, Barnyard Grass (Barnyard Grass [2]; [7]): 100%
- % Inhibition, Barnyard Grass (Barnyard Grass [2]; [8]): 100%
- % Inhibition, Barnyard Grass (Barnyard Grass [2]; [9]): 100%
- % Inhibition, Barnyard Grass (Barnyard Grass [2]; safening agent alone 1.12 kg/h): 0%

Compound: CCOC(=O)c1sc(OCC)nc1-c1cccc(C(F)(F)F)c1 [Example 9, Ethyl 2-Ethoxy-4-(m-Trifluoromethylphenyl)-5-Thiazolecarboxylate]
- Safening Effect (rice [3]; butachlor 4.48 kg/h): 20

Compound: CCOC(=O)c1sc(Oc2ccc(Cl)cc2Cl)nc1-c1cccc(C(F)(F)F)c1 [Example 10, Ethyl 2-(2',4'-Dichlorophenoxy)-4-(m-Trifluoromethylphenyl)-5-Thiazolecarboxylate]
- Safening Effect (rice [3]; butachlor 4.48 kg/h): 43
- Safening Effect (rice [4]; butachlor 0.07 kg/h): * (Safening effect between 0 and 20)
- Safening Effect (rice [4]; butachlor 0.28 kg/h): * (Safening effect between 0 and 20)
- Safening Effect (rice [4]; butachlor 1.12 kg/h): * (Safening effect between 0 and 20)

Compound: O=C(O)c1sc(Cl)nc1-c1ccccc1 [Example 11, 2-Chloro-4-Phenyl-5-Thiazolecarboxylic Acid]
- Safening Effect (rice [3]; butachlor 4.48 kg/h): 50
- Safening Effect (rice [4]; butachlor 0.07 kg/h): * (Safening effect between 0 and 20)
- Safening Effect (rice [4]; butachlor 0.28 kg/h): 63
- Safening Effect (rice [4]; butachlor 1.12 kg/h): 45

Compound: O=C(Cl)c1sc(Cl)nc1-c1ccccc1 [Example 12, 2-Chloro-4-Phenyl-5-Thiazolecarbonyl Chloride]
- Safening Effect (rice [3]; butachlor 4.48 kg/h): 50
- Safening Effect (rice [4]; butachlor 0.07 kg/h): 35
- Safening Effect (rice [4]; butachlor 0.28 kg/h): 80
- Safening Effect (rice [4]; butachlor 1.12 kg/h): 62

Compound: COC(=O)c1sc(Cl)nc1-c1ccccc1 [Example 13, Methyl 2-Chloro-4-Phenyl-5-Thiazolecarboxylate]
- Safening Effect (rice [3]; butachlor 4.48 kg/h): 30

Compound: CCCOC(=O)c1sc(Cl)nc1-c1ccccc1 [Example 14, n-Propyl 2-Chloro-4-Phenyl-5-Thiazolecarboxylate]
- Safening Effect (rice [3]; butachlor 4.48 kg/h): 20

Compound: O=C(O)c1sc(Cl)nc1-c1ccccc1 [triethanolamine salt of 2-chloro-4-phenyl-5-thiazolecarboxylic acid]
- % Inhibition, Rice (rice [1]; [7]): 0%
- % Inhibition, Rice (rice [1]; [8]): 20%
- % Inhibition, Rice (rice [1]; [9]): 60%
- % Inhibition, Rice (rice [1]; safening agent alone 1.12 kg/h): 0%
- % Inhibition, Barnyard Grass (Barnyard Grass [2]; [7]): 88%
- % Inhibition, Barnyard Grass (Barnyard Grass [2]; [8]): 99%
- % Inhibition, Barnyard Grass (Barnyard Grass [2]; [9]): 100%
- % Inhibition, Barnyard Grass (Barnyard Grass [2]; safening agent alone 1.12 kg/h): 0%
